The results in this text go back to PubChem BioAssay AID652280 (Broad Institute, 2013).

This assay can be described thus: mouse embryonic fibroblast toxicity – cell-based, plate reader, dry powder, set 2, cytotoxicity control, dose response (AID 652280). The conditions noted are these: NIH/3T3 mouse fibroblast toxicity, plate reader; at 16 µM (top of the series).

Records with an inconclusive call do not appear. The source made the active and inactive calls. No rule for the calls is given here.

Take `C[C@H]1CN([C@@H](C)CO)C(=O)c2cccc(NC(=O)c3ccncc3)c2O[C@@H]1CN(C)Cc1cc(Cl)ccc1Cl`: the activity change, negative = toxicity is 3.82% (inactive).
The result for `COCCNC(=O)c1cc2c(c(-c3cccc(C#CCN(C)C)c3)n1)[C@@H](CCO)N(S(=O)C(C)(C)C)C2` (stereo partly specified) reads 5.61% (inactive); that for `Cc1ccccc1-c1ccc([C@H]2[C@H](CO)N3CCCCN(C(=O)c4cccnc4)C[C@@H]23)cc1`, -15% (inactive); that for `CC(C)N1CC2(CN(CC3CCCCC3)C2)Oc2c(NC(=O)c3ccncc3)cccc2C1=O`, 9.84% (inactive).
In the case of `CC(c1ccc(Cl)cc1)N1CC2(C1)CN(C(C)C)C(=O)c1cccc(NC(=O)c3ccncc3)c1O2` (stereo unspecified) it was 6.05% (inactive).
For `COC[C@H](C)N1C[C@H](C)[C@@H](CN(C)Cc2ccc(Cl)cc2)Oc2c(NC(=O)c3ccncc3)cccc2C1=O`, the activity change, negative = toxicity was 2.38% (inactive).
In the case of `COc1ccc(C#Cc2cccc(-c3nc(C(=O)NCc4ccc5c(c4)OCO5)cc4c3[C@@H](CCO)N(S(=O)C(C)(C)C)C4)c2)cc1OC` (stereo partly specified) it was 9.35% (inactive); in that of `C[C@@H](CO)N1CC[C@H](CNC(=O)OC(C)(C)C)Oc2c(NC(=O)c3ccncc3)cccc2C1=O`, 2.74% (inactive).
In the case of `C[C@@H]1CN([C@@H](C)CO)C(=O)c2cccc(NC(=O)c3ccncc3)c2O[C@H]1CN(C)Cc1cccc(Cl)c1` it was -5.45% (inactive).
The result for `CC(C)N1CC[C@H](CN(C)Cc2ccc(Oc3ccccc3)cc2)Oc2c(NC(=O)c3ccncc3)cccc2C1=O` reads -22.1% (inactive); that for `COc1ccc(S(=O)(=O)N(C)C[C@H]2OCCCC[C@@H](C)Oc3ccc(N(C)C)cc3C(=O)N([C@H](C)CO)C[C@@H]2C)cc1`, 12.3% (inactive).
As for `CC(C)N1C[C@@H](C)[C@H](CN(C)C(=O)OC(C)(C)C)Oc2c(C(=O)Nc3ccncc3)cccc2C1=O`, the activity change, negative = toxicity is -10.9% (inactive).
In the case of `CN(C)CC#Cc1cccc(-c2nc(C(=O)O)cc3c2[C@H](CCO)N(S(=O)C(C)(C)C)C3)c1` (stereo partly specified), the activity change, negative = toxicity is -1.94% (inactive).
The result for `CC(C)(C)[S@](=O)N1Cc2cc(C(=O)NCc3ccc4c(c3)OCO4)nc(-c3cccc(-c4ccncc4)c3)c2[C@@H]1CCO` reads -21.4% (inactive); that for `Cc1ccc(CN(C)C[C@H]2Oc3c(NC(=O)c4ccncc4)cccc3C(=O)N([C@@H](C)CO)C[C@@H]2C)cc1`, -16.5% (inactive).
The result for `CC(C)N1C[C@H](CN)Oc2c(NC(=O)c3ccncc3)cccc2C1=O` reads 4.38% (inactive); that for `CC(C)N1C[C@H](CN2Cc3ccccc3C2)Oc2c(NC(=O)c3ccncc3)cccc2C1=O`, 1.03% (inactive); that for `CN(C)C(=O)c1cccc(-c2ccc([C@H]3[C@H](CO)N4CCCCN(C(=O)C5CCC5)C[C@@H]34)cc2)c1`, 11.8% (inactive).
In the case of `O=C(Cc1ccccn1)N1CCCCN2[C@@H](CO)[C@H](c3ccc(-c4ccc(F)cc4)cc3)[C@@H]2C1` it was -8.79% (inactive); in that of `CN(C)CC(=O)N1CCCCN2[C@@H](CO)[C@H](c3ccc(-c4cccnc4)cc3)[C@@H]2C1`, 0.846% (inactive); in that of `CC(C)N1C[C@H](CNCc2ccc(Cl)cc2)Oc2c(NC(=O)c3ccncc3)cccc2C1=O`, -20.3% (inactive).
Turning to `CC(C)N1C[C@@H](CN(C)Cc2ccc(Cl)cc2)Oc2c(NC(=O)c3ccnn3C)cccc2C1=O`, the activity change, negative = toxicity was 5.57% (inactive).
The result for `CN(C)C(=O)c1ccc(-c2ccc([C@H]3[C@H](CO)N4CCCCN(CC5CC5)C[C@@H]34)cc2)cc1` reads 24.4% (inactive); that for `CC(C)(C)S(=O)N1Cc2cc(C(=O)NCc3ccc4c(c3)OCO4)nc(-c3cccc(C#CCC4CCCC4)c3)c2[C@@H]1CCO` (stereo partly specified), 83.4% (inactive).
The result for `CC(C)N1C[C@H](C)[C@@H](CN(C)Cc2ccc(Oc3ccccc3)cc2)Oc2c(cccc2-c2nn[nH]n2)C1=O` reads 28.7% (inactive).
In the case of `CC(C)N1CC2(CN(Cc3ccccc3Cl)C2)Oc2c(NC(=O)c3ccncc3)cccc2C1=O` it was -16.5% (inactive).
`CC(C)N1C[C@@H](CN)Oc2c(NC(=O)c3ccncc3)cccc2C1=O`: the activity change, negative = toxicity was 22.7% (inactive).
Regarding `CC(C)N1C[C@@H](C)[C@H](CN(C)C(=O)OC(C)(C)C)Oc2c(C#N)cccc2C1=O`, the activity change, negative = toxicity was -6.53% (inactive).
In the case of `CN(C)CC#Cc1cccc(-c2nc(C(=O)NCc3ccc4c(c3)OCO4)cc3c2[C@@H](CCO)N(S(=O)C(C)(C)C)C3)c1` (stereo partly specified) it was 0.74% (inactive).
The result for `CC(C)N1CC2(CN(C(=O)OC(C)(C)C)C2)Oc2c(NC(=O)c3ccncc3)cccc2C1=O` reads -9.89% (inactive).
In the case of `CN(C)C(=O)c1cccc(-c2ccc([C@@H]3[C@@H](CO)N4CCCCN(C(=O)C5CCC5)C[C@@H]34)cc2)c1` it was 0.445% (inactive); in that of `CC(C)(C)[S@@](=O)N1Cc2cc(C(=O)NCc3ccc4c(c3)OCO4)nc(-c3cccc(-c4ccccc4)c3)c2[C@H]1CCO`, 14.4% (inactive); in that of `COCC(=O)N1CCCCN2[C@@H](CO)[C@H](c3ccc(-c4cccc(C)c4)cc3)[C@@H]2C1`, -12.3% (inactive).
On to `CC(C)N1CC2(CN(Cc3ccccc3F)C2)Oc2c(NC(=O)c3ccncc3)cccc2C1=O`, for which the activity change, negative = toxicity is 6.11% (inactive).
`CN(C)C(=O)c1cccc(-c2ccc([C@H]3[C@H](CO)N4CCCCN(CC5CCOCC5)C[C@@H]34)cc2)c1`: the activity change, negative = toxicity is 20% (inactive).
For `CN(C)CC#Cc1cccc(-c2nc(C(=O)N[C@@H]3CCN(Cc4ccccc4)C3)cc3c2[C@@H](CCO)N(S(=O)C(C)(C)C)C3)c1` (stereo partly specified), the activity change, negative = toxicity is 0.065% (inactive).
In the case of `O=C(CN1CCOCC1)N1CCCCN2[C@@H](CO)[C@H](c3ccc(Br)cc3)[C@@H]2C1` it was 2.42% (inactive).
The result for `COc1cccc(CN(C)C[C@H]2Oc3c(NC(=O)c4ccncc4)cccc3C(=O)N([C@@H](C)CO)C[C@@H]2C)c1` reads 6.03% (inactive); that for `CN(C)C(=O)c1ccc(-c2ccc([C@H]3[C@H](CO)N4CCCCN(C(=O)C5CCC5)C[C@@H]34)cc2)cc1`, -17% (inactive); that for `C[C@@H]1CN([C@@H](C)CO)C(=O)c2cc(Br)cnc2O[C@H]1CN(C)Cc1ccc2c(c1)OCO2`, -12% (inactive).
In the case of `C[C@H]1CN([C@@H](C)CO)C(=O)c2cccc(NC(=O)c3ccncc3)c2O[C@@H]1CN(C)Cc1cccc(Cl)c1` it was -20.7% (inactive); in that of `CC(C)N1C[C@H](C)[C@@H](CN(C)Cc2ccc(Cl)cc2)Oc2c(NC(=O)c3ccncc3)cccc2C1=O`, -13.4% (inactive); in that of `C[C@H]1CN([C@@H](C)CO)C(=O)c2cccc(NC(=O)c3ccncc3)c2O[C@@H]1CN(C)Cc1ccc(Cl)cc1`, -41.2% (inactive).
Turning to `CC(C)N1C[C@@H](CN(C)Cc2ccc(Cl)cc2)Oc2c(NC(=O)c3ccncn3)cccc2C1=O`, the activity change, negative = toxicity is -18.8% (inactive).
The result for `CC(C)N1C[C@@H](CN(C)Cc2ccc(Cl)cc2)Oc2c(NC(=O)c3ncn[nH]3)cccc2C1=O` reads 0.096% (inactive); that for `CN(C)C(=O)c1cccc(-c2ccc([C@H]3[C@@H](CO)N4CCCCN(C(=O)C5CCC5)C[C@H]34)cc2)c1`, 9.2% (inactive).
In the case of `C[C@H]1CN([C@@H](C)CO)C(=O)c2cccc(NC(=O)c3ccncc3)c2O[C@@H]1CN(C)Cc1ccc(Cl)cc1Cl` it was -13.3% (inactive).
In the case of `CC(C)N1C[C@H](CN(C)Cc2ccc(Cl)cc2)Oc2c(NC(=O)c3ccnnc3)cccc2C1=O` it was 3.72% (inactive).
As for `O=C(Cc1ccccn1)N1CCCCN2[C@@H](CO)[C@H](c3ccc(Br)cc3)[C@@H]2C1`, the activity change, negative = toxicity was 9.05% (inactive).
In the case of `OC[C@H]1[C@H](c2ccc(Br)cc2)[C@@H]2CN(Cc3ccccn3)CCCCN12` it was 5.37% (inactive).
In the case of `Cc1cccc(CN(C)C[C@H]2Oc3c(NC(=O)c4ccncc4)cccc3C(=O)N([C@@H](C)CO)C[C@@H]2C)c1` it was -19.1% (inactive); in that of `C[C@H]1CN([C@@H](C)CO)C(=O)c2cccc(NC(=O)c3ccncc3)c2O[C@@H]1CN(C)Cc1c(Cl)cccc1Cl`, 16% (inactive).
In the case of `O=C(Cn1ccnc1[N+](=O)[O-])NCc1ccccc1` it was 17.4% (inactive); in that of `COc1ccc(CCN(C)C(=O)C2CCCN(Cc3ccc(OC)c(OC)c3)C2)cc1OC` (stereo unspecified), 6.14% (inactive); in that of `CN(C)C(=O)c1cccc(-c2ccc([C@H]3[C@H](CO)N4CCCCN(C(=O)C5CCCC5)C[C@@H]34)cc2)c1`, 32.1% (inactive).
In the case of `O=C(Cc1ccccn1)N1CCCCN2[C@@H](CO)[C@H](c3ccc(-c4ccccc4)cc3)[C@@H]2C1`, the activity change, negative = toxicity is -15.8% (inactive).
The result for `CN(C)C(=O)c1cccc(-c2ccc([C@H]3[C@@H](CO)N4CCCCN(C(=O)C5CCC5)C[C@@H]34)cc2)c1` reads 1.53% (inactive).
The result for `Cc1ccccc1CN(C)C[C@H]1Oc2c(NC(=O)c3ccncc3)cccc2C(=O)N([C@@H](C)CO)C[C@@H]1C` reads -4.8% (inactive); that for `CC(C)N1CC2(CN(C(=O)c3ccc(Cl)cc3)C2)Oc2c(NC(=O)c3ccncc3)cccc2C1=O`, 10.5% (inactive); that for `CC(C)N1C[C@@H](C)[C@H](CN(C)C(=O)OC(C)(C)C)Oc2c(C(N)=O)cccc2C1=O`, 12.8% (inactive).
In the case of `C[C@@H](CO)N1CC[C@H](CNC(=O)OC(C)(C)C)Oc2c(cccc2[N+](=O)[O-])C1=O` it was 16.7% (inactive).
